According to ChEMBL document CHEMBL1201862, “PubChem BioAssay data set” (2004):
Calls of active or inactive are those of the source.

Experiments:
[1] = test system: INS1; experiment: INS-1E survival protection against cytokine death – cell-based, luminescence, retest, dose response (AID 449756); assay type: functional; details: Rattus norvegicus;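 note: cell death triggered by IL-1 beta plus TNF-alpha plus IFN-gamma mixture; protective hits raise ATP signal compared with cytokine alone wells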
[2] = NIH-3T3 fibroblast cytotoxicity, dose response, cytotoxicity control, cell-based, fluorescence, Alamar Blue, secondary assay (AID 2327); assay type: functional;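 note: NIH-3T3 mouse fibroblasts cultured with fluconazole at 8 µg/mL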
[3] = target: T1, Estrogen receptor (Homo sapiens, UniProt P03372);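 note: potency for inhibiting coactivator peptide recruitment to the receptor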
T1 sequence (P03372 whole entry): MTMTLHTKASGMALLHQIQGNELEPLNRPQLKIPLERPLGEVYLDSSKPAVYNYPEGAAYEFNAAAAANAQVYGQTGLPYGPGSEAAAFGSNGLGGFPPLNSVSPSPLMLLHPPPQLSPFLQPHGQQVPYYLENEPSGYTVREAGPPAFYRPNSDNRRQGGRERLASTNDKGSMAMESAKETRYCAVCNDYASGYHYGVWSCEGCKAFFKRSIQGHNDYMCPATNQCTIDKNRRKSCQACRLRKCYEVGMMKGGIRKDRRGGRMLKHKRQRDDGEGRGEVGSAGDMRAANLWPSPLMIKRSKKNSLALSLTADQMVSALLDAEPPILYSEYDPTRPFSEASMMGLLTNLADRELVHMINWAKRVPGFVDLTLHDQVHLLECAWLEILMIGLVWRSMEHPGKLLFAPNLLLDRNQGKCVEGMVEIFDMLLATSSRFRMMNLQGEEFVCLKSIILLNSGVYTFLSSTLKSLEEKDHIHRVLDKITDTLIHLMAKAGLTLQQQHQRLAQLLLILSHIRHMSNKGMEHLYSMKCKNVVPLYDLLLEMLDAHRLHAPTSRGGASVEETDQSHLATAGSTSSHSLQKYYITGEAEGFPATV

[4] = viability loss in THP-1 monocytes – THP-1 cells, cytotoxicity control for Vif-APOBEC3G degradation inhibitor project, dose response (AID 1117359); assay type: functional; details: THP-1
[5] = target: T2, Bcl-2-like protein 10 (Homo sapiens, UniProt Q9HD36); experiment: Bcl-B/TR3 peptide binding disruption – biochemical, fluorescence polarization, FITC-TR3 peptide, selectivity assay for Bfl-1 inhibitor project, primary screen (AID 748);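 note: fluorescence polarization from a fluorescein-labelled TR3 peptide binding purified Bcl-B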
T2 sequence (Q9HD36 whole entry): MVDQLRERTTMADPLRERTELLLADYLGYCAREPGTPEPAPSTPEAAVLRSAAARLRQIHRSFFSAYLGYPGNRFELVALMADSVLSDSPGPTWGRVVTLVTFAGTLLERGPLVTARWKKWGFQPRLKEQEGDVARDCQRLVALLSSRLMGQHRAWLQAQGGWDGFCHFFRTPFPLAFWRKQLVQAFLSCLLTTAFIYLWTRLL

[6] = target: Nonstructural protein 1 (Influenza A virus, UniProt Q194T2); assay type: functional, Influenza A virus (A/California/07/2009(H1N1))
[7] = fluconazole-exposed Candida albicans growth modulators – fluorescence, retest, confirmation (AID 2467); assay type: functional, cell-based
[8] = target: T3, Insulin-degrading enzyme (Homo sapiens, UniProt P14735); experiment: Dose Response: Fluorescence polarization-based cell-based high throughput dose response assay for inhibitors of insulin-degrading enzyme (IDE). [Related pubchem assays: 434962 (Primary screen (IDE inhibitors in singlicate)), 449730 (Counterscreen (Cytotoxicity in triplicate)), 435028 (Confirmation (IDE inhibitors in triplicate)), 434984 (Summary …; assay type: functional
T3 sequence (P14735 whole entry): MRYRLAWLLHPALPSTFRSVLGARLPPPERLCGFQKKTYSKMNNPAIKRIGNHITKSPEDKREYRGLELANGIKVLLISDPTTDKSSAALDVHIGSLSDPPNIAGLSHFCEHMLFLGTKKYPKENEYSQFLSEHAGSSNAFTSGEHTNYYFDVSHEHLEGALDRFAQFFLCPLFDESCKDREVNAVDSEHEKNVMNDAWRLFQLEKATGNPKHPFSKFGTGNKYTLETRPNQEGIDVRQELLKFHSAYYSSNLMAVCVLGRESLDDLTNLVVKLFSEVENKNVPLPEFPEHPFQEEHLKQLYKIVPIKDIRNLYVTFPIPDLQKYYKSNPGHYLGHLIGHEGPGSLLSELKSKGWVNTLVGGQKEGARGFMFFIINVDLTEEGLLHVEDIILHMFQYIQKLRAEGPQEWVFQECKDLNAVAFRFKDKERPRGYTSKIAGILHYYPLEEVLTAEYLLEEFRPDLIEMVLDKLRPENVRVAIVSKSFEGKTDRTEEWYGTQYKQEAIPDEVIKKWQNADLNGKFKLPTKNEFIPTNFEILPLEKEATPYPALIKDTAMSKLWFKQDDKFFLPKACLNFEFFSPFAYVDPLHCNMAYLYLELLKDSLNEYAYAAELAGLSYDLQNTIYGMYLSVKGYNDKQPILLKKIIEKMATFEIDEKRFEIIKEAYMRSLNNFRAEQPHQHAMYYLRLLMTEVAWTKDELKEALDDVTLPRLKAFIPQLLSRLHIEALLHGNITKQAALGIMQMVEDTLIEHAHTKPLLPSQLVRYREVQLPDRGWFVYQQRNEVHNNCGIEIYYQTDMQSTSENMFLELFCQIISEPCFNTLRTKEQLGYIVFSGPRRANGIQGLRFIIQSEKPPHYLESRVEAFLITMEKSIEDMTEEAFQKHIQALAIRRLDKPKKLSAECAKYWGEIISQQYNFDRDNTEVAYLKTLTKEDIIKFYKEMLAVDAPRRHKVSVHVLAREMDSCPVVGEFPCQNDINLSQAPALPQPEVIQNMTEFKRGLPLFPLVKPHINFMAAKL

[9] = Counterscreen for IDE inhibitors: Luminescence-based cell-based high throughput dose response assay to identify compounds that are cytotoxic to HEK cells. [Related pubchem assays: 434962 (Primary screen (IDE inhibitors in singlicate)), 449730 (Counterscreen (Cytotoxicity in triplicate)), 435028 (Confirmation (IDE inhibitors in triplicate)) …; assay type: functional; details: HEK293
[10] = target: Cytochrome P450 2C9 (Homo sapiens, UniProt P11712); details: Potency
[11] = IC50 of Artemis nuclease activity blockers – biochemical, fluorescence intensity, dose response (AID 720701); assay type: functional;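 note: Artemis endonuclease enzyme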
[12] = blockers of CRF-binding protein–CRF-R2 complex – cell-based, uHTS hits, 384-well, dose response (AID 651639); assay type: functional, Homo sapiens; details: read-out: IC50_Mean
[13] = target: T4, Corticotropin-releasing factor receptor 2/Corticotropin-releasing factor-binding protein (Homo sapiens, UniProt P24387+Q13324); experiment: Dose Response confirmation of uHTS hits for small molecule antagonists of the CRF-binding protein and CRF-R2 receptor complex.; assay type: functional; details: read-out: IC50_Mean
T4 sequence (Q13324 whole entry): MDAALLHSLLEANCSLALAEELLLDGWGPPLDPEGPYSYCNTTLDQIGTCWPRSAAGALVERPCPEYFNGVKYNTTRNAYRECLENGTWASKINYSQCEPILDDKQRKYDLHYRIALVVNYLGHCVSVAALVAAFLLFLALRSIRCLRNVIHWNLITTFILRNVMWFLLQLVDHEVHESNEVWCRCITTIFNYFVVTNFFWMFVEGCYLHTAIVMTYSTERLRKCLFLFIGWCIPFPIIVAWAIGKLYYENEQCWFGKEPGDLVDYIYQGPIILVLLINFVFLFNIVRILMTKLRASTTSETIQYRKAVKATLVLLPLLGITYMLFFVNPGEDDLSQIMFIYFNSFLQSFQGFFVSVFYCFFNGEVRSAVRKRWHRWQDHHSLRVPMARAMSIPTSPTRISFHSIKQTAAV
T4 sequence (P24387 whole entry): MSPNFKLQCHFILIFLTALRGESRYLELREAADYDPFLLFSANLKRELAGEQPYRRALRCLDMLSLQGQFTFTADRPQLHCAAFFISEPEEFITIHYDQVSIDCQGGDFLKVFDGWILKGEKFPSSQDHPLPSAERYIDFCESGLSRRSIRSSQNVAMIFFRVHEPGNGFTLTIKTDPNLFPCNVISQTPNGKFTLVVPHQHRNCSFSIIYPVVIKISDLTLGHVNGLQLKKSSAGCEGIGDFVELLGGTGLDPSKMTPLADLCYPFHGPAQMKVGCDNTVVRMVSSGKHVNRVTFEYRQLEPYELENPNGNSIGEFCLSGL

[14] = target: T4, Corticotropin-releasing factor receptor 2/Corticotropin-releasing factor-binding protein; experiment: activators of CRF receptor 2 with binding protein – uHTS hits, confirmation (AID 602473); assay type: functional; details: read-out: EC50_Mean
[15] = target: Aminopeptidase N (Plasmodium falciparum FcB1/Columbia, UniProt O96935); experiment: malaria alanyl aminopeptidase activity blockers – biochemical, fluorogenic H-Leu-NHMec substrate, 1536-well (AID 1445); parameters: species or system Plasmodium falciparum 3D7, 3D7
[16] = target: G-protein coupled receptor 35 (Homo sapiens, UniProt Q9HC97); experiment: inhibition of zaprinast-stimulated GPR35 beta-arrestin translocation – imaging, U2OS, beta-arrestin-GFP, zaprinast agonist, primary screen (AID 2058); assay type: functional;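 note: antagonist potency meaning inhibition of agonist-induced arrestin redistribution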
[17] = target: Scavenger receptor class B member 1 (Mus musculus, UniProt Q61009); experiment: mouse SR-BI DiI-HDL uptake blockers – ldlA[mSR-BI] cells, fluorescence, cherry pick, dose response (AID 493194); assay type: functional, cell-based;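 note: cellular uptake of fluorescent DiI-labeled HDL measured as cell fluorescence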
Scavenger receptor class B member 1, sequence (Q61009 whole entry): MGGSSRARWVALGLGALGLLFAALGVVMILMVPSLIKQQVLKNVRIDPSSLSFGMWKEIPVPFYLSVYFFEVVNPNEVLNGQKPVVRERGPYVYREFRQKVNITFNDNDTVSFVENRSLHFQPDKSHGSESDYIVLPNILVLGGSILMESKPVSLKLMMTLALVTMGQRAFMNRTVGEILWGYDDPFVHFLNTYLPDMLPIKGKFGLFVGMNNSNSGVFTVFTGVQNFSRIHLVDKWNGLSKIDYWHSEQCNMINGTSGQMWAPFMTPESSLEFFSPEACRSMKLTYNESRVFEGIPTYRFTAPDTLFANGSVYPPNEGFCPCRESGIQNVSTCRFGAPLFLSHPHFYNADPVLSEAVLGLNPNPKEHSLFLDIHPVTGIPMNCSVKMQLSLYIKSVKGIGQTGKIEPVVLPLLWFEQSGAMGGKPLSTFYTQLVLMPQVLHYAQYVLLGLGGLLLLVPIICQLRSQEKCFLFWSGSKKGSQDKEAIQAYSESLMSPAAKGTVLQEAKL

Nonstructural protein 1, sequence (Q194T2 whole entry): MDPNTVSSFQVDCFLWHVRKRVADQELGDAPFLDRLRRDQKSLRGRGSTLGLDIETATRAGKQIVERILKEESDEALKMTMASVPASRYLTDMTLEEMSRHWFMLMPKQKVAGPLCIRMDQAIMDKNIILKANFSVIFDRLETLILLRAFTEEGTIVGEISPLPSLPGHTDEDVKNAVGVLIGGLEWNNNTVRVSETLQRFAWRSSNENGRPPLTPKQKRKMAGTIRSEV
Aminopeptidase N, sequence (O96935 whole entry): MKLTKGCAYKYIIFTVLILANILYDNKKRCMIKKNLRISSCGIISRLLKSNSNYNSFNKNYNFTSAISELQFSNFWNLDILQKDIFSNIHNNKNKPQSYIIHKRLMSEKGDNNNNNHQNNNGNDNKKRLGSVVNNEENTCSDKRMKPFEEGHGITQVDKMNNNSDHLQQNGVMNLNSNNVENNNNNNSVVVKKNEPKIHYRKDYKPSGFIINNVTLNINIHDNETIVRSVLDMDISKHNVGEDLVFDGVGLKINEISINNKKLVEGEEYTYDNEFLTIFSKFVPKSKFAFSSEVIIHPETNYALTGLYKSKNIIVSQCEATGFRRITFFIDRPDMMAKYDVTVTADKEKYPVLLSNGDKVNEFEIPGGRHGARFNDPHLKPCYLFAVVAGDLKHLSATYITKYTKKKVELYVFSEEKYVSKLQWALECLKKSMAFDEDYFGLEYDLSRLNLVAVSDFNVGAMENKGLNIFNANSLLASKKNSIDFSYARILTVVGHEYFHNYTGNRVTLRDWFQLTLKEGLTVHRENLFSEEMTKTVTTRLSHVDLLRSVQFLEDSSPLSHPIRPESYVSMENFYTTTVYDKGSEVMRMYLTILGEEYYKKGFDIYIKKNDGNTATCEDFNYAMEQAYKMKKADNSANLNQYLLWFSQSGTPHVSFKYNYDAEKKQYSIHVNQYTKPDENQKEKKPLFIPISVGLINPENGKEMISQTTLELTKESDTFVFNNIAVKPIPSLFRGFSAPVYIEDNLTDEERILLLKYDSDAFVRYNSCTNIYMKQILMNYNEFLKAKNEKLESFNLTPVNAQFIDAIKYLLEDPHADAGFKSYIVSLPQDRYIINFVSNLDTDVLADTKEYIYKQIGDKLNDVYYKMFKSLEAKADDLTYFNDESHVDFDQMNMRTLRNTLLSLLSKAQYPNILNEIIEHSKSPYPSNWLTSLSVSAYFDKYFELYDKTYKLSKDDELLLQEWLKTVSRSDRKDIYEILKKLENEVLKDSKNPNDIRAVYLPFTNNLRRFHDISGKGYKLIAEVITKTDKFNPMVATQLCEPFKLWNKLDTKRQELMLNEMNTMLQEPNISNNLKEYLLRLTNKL
G-protein coupled receptor 35, sequence (Q9HC97 whole entry): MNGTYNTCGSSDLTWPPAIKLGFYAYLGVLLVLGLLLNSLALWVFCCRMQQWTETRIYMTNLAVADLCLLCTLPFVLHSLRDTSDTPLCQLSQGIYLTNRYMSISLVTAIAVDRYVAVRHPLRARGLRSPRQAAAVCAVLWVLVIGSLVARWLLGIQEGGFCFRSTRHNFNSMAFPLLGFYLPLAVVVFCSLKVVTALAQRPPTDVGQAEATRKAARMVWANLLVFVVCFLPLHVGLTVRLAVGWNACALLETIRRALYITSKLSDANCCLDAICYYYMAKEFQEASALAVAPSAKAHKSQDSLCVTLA
Cytochrome P450 2C9, sequence (P11712 whole entry): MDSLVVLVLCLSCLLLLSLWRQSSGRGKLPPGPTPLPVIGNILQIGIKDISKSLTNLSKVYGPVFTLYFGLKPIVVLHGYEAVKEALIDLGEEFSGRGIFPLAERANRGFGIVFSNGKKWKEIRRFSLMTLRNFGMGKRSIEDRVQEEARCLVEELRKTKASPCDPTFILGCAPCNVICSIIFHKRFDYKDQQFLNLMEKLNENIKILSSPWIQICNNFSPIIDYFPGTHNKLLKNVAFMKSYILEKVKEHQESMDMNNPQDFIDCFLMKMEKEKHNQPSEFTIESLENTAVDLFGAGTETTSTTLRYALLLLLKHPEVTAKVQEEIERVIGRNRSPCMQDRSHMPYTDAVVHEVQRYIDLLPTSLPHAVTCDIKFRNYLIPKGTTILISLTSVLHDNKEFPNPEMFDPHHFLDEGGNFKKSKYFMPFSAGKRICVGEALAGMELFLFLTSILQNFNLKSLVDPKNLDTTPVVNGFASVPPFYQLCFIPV

For `Cc1ccc2nc(O)c(C3C(C#N)=C(N)Oc4c3ccc3cccnc43)cc2c1` (stereo not drawn), which AC50 [1] is on record?
Its AC50 is 1.27 µM (active).

What about the EC50 [2] of the same compound?
Its EC50 is > 160 µM (inconclusive).

What about the IC50 [3] of the same compound?
The IC50 was 19.5 µM (active).

What about the CC50 [4] of the same compound?
Its CC50 is 2.48 µM (active).

What about the IC50 [5] of the same compound?
Its IC50 is 66.8 µM (inactive).

What about the IC50 [6] of the same compound?
The IC50 was 46.8 µM (active).

And the EC50 [7]?
The EC50 was 2.17 µM (active).

With `CCOC(=O)N1CCN(c2ccnc3cc(Cl)ccc23)CC1` as the compound, how does the IC50 [8] read?
Its IC50 is 18.9 µM (not active).

And the IC50 [9]?
The IC50 was 15.7 µM (not active).

For `COc1ccc(-c2coc3ccc(O[C@@H]4O[C@@H](COC(C)=O)[C@@H](OC(C)=O)[C@@H](OC(C)=O)[C@H]4OC(C)=O)cc3c2=O)cc1`, which AC50 [10] is on record?
Its AC50 is 20 µM (inconclusive).

With `O=C(Cc1ccccc1)Nc1ccc(N2CCCC2)cc1` as the compound, how does the IC50 [5] read?
Its IC50 is 31.2 µM (active).

What about the IC50 [11] of the same compound?
Its IC50 is 6.03 µM (active).

What does the source list for `O=C(ON=C1CCN(c2ccc([N+](=O)[O-])cc2)CC1)c1ccccc1`?
IC50 [12]: > 20 µM (inactive); IC50 [13]: 2.74 µM (active); EC50 [14]: > 53 µM (inactive); IC50 [15]: 45.2 µM (active)

With `CC(=O)Nc1sc(/C(C#N)=C/c2ccc(Cl)c(Cl)c2)nc1-c1ccc(C)cc1` as the compound, how does the IC50 [16] read?
Its IC50 is 0.534 µM (active).

With `COc1cccc(N(CC(=O)NC2CCCC2)C(=O)Cn2nnc(-c3ccc(C)cc3)n2)c1` as the compound, how does the AC50 [17] read?
Its AC50 is 234 µM (active).
